Assays:
[1] = test system: mouse tail model of lymphedema; assay: Mouse tail model of lymphedema (tail volume, histology, immunostaining, lymphoscintigraphy, NIR imaging, PCR, ELISA); format: in vivo, C57BL/6J mice
[2] = test system: popliteal lymph node dissection (PLND) mouse model; assay: Popliteal lymph node dissection (PLND) hind limb model of lymphatic injury
[3] = test system: hind limb lymphatic ablation with DT; assay: Hind limb lymphatic ablation with DT; format: in vivo, mouse
[4] = topical captopril 5% once daily, 6 weeks after tail lymphatic ablation, vs control
[5] = topical captopril 5% once daily for 2 weeks after PLND, vs control
[6] = captopril after DT lymphatic ablation, ipsilateral limb vs ipsilateral control
[7] = systemic pirfenidone, oral 400 mg/kg daily for 3 weeks from 7 weeks after surgery, vs control
[8] = systemic pirfenidone, vs control
[9] = topical pirfenidone 1 mg/ml daily for 3 weeks from 7 weeks after surgery, vs control
[10] = topical pirfenidone, vs control
[11] = systemic pirfenidone once daily for 2 weeks from 2 weeks after PLND, 4 weeks after PLND, vs vehicle
[12] = systemic pirfenidone, 4 weeks after PLND, vs control

## C[C@H](CS)C(=O)N1CCC[C@H]1C(=O)O [captopril]
[1]; [4]
  ACE staining area: significant decrease
  LYVE-1+ lymphatic vessel area: significant decrease
  dermal type I collagen staining area: significant decrease
  number of lymphatic vessels (LYVE-1+) crossing the region of the tail wound: increases
  perilymphatic CD3+ cells/vessel: significant decrease
  perilymphatic F4/80 cells/vessel: significant decrease
  subcutaneous fibroadipose tissue deposition: significant decrease
[1]; topical captopril ointment, 6 weeks after tail lymphatic ablation, vs control
  tail collecting vessel pumping (contraction) frequency: increases
[2]; [5]
  T cell (CD3+) infiltration in hind limb tissues: decreases
  hind limb collecting lymphatic pumping (packet frequency): increases
  lymphangiogenesis (LYVE-1+ vessels): increases
  macrophage (F4/80+) infiltration in hind limb tissues: decreases
  trafficking of dendritic cells (FITC+CD11c cells in inguinal lymph nodes): increases
[2]; topical captopril 5% once daily for 2 weeks after PLND, vs vehicle
  lymphatic function: improved lymphatic function
[3]; [6]
  LYVE-1+ lymphatic vessel area: significant decrease
  T cell (CD3+) infiltration in hind limb tissues: decreases
  hind limb angiotensin converting enzyme (ACE) expression: decreases
  hind limb collecting vessel smooth muscle (α-SMA) deposition: decreases
  hind limb lymphangiogenesis (LYVE-1+ lymphatic vessels): decreases
  hind limb macrophage (F4/80+) infiltration: decreases
  hind limb type I collagen deposition: decreases
[3]; captopril after DT lymphatic ablation, vs control
  formation of collateral lymphatics (ICG): increases
[3]; captopril treatment after hind limb lymphatic ablation with DT, vs control
  foot swelling: obvious decrease

## Cc1ccc(=O)n(-c2ccccc2)c1 [pirfenidone]
[1]; pirfenidone (FIG. 20I: systemic), vs control
  TGF-β1 protein accumulation (ELISA): decreased accumulation
[1]; pirfenidone (FIG. 20J: systemic), vs control
  accumulation of IFN-γ protein (ELISA): significant decrease
[1]; pirfenidone (FIG. 20K: systemic), vs control
  VEGF-C protein accumulation (ELISA): no difference
[1]; pirfenidone treatment (systemic and topical, FIG. 20A, 20D), vs control
  numbers of infiltrating CD4+ cells: marked decreases
[1]; pirfenidone treatment from 7 weeks after surgery, vs control
  numbers of infiltrating CD3+ cells: marked decreases
[1]; pirfenidone, vs control
  lymphatic vessels density (LYVE-1) in the tail: marked increase
[1]; pirfenidone-treated animals vs control
  type I collagen around collecting lymphatics (α-SMA+/podoplanin+): essentially normal lymphatic vessels
[1]; [7]
  soft tissue thickness: markedly decreased
  tail volume: markedly decreased
[1]; [8]
  F4/80+ cellular infiltration in lymphedematous tail tissues: no difference
  accumulation of TGF-β1+ cells: markedly decreased
  accumulation of pSMAD3+ cells: markedly decreased
  dermal and subcutaneous type I collagen deposition: significantly decreased
  increase in decay-adjusted 99Tc uptake of the sacral lymph nodes: ~4 fold
  increase in peak nodal uptake of 99Tc: ~4 fold
  numbers of leukocytes infiltrating the dermis and subcutaneous fat: markedly decreased
  rate of 99Tc uptake (slope of decay-adjusted curve): increased
[1]; [9]
  soft tissue thickness: markedly decreased
  tail volume: markedly decreased
[1]; [10]
  F4/80+ cellular infiltration in lymphedematous tail tissues: no difference
  accumulation of TGF-β1+ cells: markedly decreased
  accumulation of pSMAD3+ cells: markedly decreased
  dermal and subcutaneous type I collagen deposition: significantly decreased
  increase in decay-adjusted 99Tc uptake of the sacral lymph nodes: ~4 fold
  increase in peak nodal uptake of 99Tc: ~4 fold
  numbers of leukocytes infiltrating the dermis and subcutaneous fat: markedly decreased
  rate of 99Tc uptake (slope of decay-adjusted curve): increased
[2]; systemic pirfenidone once daily for 2 weeks from 2 weeks after PLND, 4 weeks after PLND, vs control
  lymphatic vessels density (LYVE-1) in the hind limb: marked increase
[2]; [11]
  dermal backflow and capillary vessel leakage (NIR lymphangiography): markedly less
  increase in rate of collecting lymphatic vessel contraction: 2 fold
[2]; [12]
  perilymphatic expression of iNOS by inflammatory cells: significant decrease
  perilymphatic infiltration of inflammatory cells (CD45+): significant decrease

## C/C(O)=C(\C#N)C(=O)Nc1ccc(C(F)(F)F)cc1 [teriflunomide]
[1]; topical teriflunomide 27 mg/ml once daily for 4 weeks from 2 weeks after surgery, 6 weeks after lymphatic ablation, vs vehicle
  decrease in tail volume: ~6 fold
[1]; topical teriflunomide 27 mg/ml, vs control
  decrease in number of infiltrating CD4+ cells in tail tissues: more than 8 fold
[2]; topical teriflunomide 27 mg/ml after PLND, vs control
  increase in number of DCs trafficked to the inguinal lymph node (FITC painting): more than 5 fold
[2]; topical teriflunomide 27 mg/ml once daily for 2 weeks from 2 weeks after PLND, vs vehicle
  increase in formation of collateral lymphatic vessels bypassing the zone of injury (ICG near infra-red imaging): 4.5 fold
